# Measured values reported in patent US20220235006A1, “PYRIDINE DERIVATIVES AS TMEM16A MODULATORS FOR USE IN THE TREATMENT OF RESPIRATORY CONDITIONS” (TMEM16A LIMITED, priority 2019, published 2022).
# Legend:
# [1] = Log D (pH7.4 shake flask); type: physicochemical; conditions: pH 7.4; 1-octanol/phosphate buffer shake flask; read-out: mLogD (pH 7.4)
# Procedure: Phosphate buffer (1 M) was diluted to 20 mM with deionised water and adjusted to pH 7.4 with phosphoric acid or sodium hydroxide. 1-octanol and phosphate buffer (20 mM) were saturated overnight by tumbling. The two phases were separated using a separation funnel. 5 μL of 5 mM compound cassette was added to 495 μL of octanol-saturated buffer and 495 μL buffer saturated octanol in a 96-well plate (top concentration 50 μM). Plate was shaken for 1 h and centrifuged at 25° C. for 5 min. 200 μL of each phase was transferred to a separate plate. The octanol layer was sampled first to avoid cross contamination. 5 μL of the solutions were transferred to 495 μL of quench solution* (max concentration 0.5 μM). In addition, 40 μL of buffer solution was added to 360 μL of quench solvent (max concentration 5 μM). Samples were analysed by LC-MS/MS. Benchmarking against a calibration curve for each compound and with reference to the control compounds sulpride, diclofenac, chlorpromazine and tamoxifen. *Quench solution was a 1:3:1 mixture (v/v/v) of Acetonitrile containing 0.1% formic acid and imipramine/labetalol, 200 nM:Acetonitrile:Water.
# [2] = Kinetic solubility determination (high throughput); type: physicochemical; conditions: kinetic from dmso stock, sterile water, 5% DMSO, room temperature
# Procedure: Test compounds (10 μL; 20 mM DMSO solution) were added to sterile water (190 μL) in triplicate and shaken at 300 rpm at room temperature. After 90 min. the test compounds were filtered by centrifuge (5 min. at 3000 rpm) to obtain the aqueous filtrate. Acetonitrile (20 μL) was dispensed into clean 96-well UV/VIS analysis plate and aqueous filtrate (80 μL) added and the plate analysed for test compound concentration using a Molecular Devices SPECTRAmax® plus microplate reader at the following wavelengths: (280, 300, 320, 340, 360, 800 nm). […] The diluted filtrate (80 μL) was then added to acetonitrile (20 μL) and the plate analysed. as previously.
# [3] = biological target: T1, human TMEM16A (TMEM16Aabc variant) (Homo sapiens, UniProt Q5XXA6, DEL476-501); assay: Automated whole-cell patch clamp (Qpatch) TMEM16A potentiator assay in recombinant FRT cells; type: cell-based; conditions: for activation at 3.33 µM: percentage increase of baseline TMEM16A current, minimum n = 2, read-out: % Potentiation @ 3.33 uM Avg; for EC50: minimum n = 2
# T1 sequence (Q5XXA6 with tags, fused parts or gaps isoform Q5XXA6-5 DEL539-564): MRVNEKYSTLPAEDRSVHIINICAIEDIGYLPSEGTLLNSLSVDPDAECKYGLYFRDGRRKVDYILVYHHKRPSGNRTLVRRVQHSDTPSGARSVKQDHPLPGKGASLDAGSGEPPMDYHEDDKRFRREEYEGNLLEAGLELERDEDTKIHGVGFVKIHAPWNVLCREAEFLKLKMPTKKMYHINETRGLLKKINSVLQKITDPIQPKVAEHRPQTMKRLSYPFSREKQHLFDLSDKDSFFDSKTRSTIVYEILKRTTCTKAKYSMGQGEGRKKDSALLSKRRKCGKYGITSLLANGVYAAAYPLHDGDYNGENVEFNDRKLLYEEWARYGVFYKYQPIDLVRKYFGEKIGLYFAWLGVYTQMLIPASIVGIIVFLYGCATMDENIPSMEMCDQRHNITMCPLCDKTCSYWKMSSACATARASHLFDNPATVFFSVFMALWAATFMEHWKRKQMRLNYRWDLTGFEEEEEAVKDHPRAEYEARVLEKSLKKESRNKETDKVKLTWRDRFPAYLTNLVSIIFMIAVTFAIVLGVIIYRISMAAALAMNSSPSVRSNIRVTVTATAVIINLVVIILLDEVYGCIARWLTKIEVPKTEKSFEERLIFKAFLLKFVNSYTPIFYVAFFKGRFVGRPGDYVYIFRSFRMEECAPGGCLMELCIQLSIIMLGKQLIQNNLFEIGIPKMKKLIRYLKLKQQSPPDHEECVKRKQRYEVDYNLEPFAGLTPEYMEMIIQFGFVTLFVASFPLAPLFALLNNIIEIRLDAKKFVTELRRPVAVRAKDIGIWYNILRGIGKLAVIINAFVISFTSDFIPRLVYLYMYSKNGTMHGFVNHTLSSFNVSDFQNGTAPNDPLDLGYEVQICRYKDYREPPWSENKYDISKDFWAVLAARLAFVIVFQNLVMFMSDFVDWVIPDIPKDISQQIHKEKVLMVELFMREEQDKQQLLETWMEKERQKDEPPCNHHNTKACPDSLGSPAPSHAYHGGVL
# Procedure, shortened: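 FRT cells stably expressing human TMEM16Aabc, whole-cell automated patch clamp with intracellular Ca2+ buffered for ~20% maximal current (EC20). Held at −70 mV, step to +70 mV/ramp at 0.05 Hz, cumulative compound additions of 5 min each. Peak +70 mV current increase expressed as % potentiation of baseline.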
SMILES,logD [1],solubility kinetic at 90 min [2] [µg/mL],activation at 3.33 µM [3] [%],EC50 [3] [nM]
"[2H]c1c(O)c(C(C([2H])([2H])[2H])(C([2H])([2H])[2H])C([2H])([2H])[2H])cc(F)c1CC(=O)Nc1ccnc(C(=O)NC2(C#N)CC2)c1 [Example 4, N-(1-Cyanocyclopropyl)-4-[[2-[2-deuterio-6-fluoro-3-hydroxy-4-[2,2,2-trideuterio-1,1-bis(trideuteriomethyl)ethyl]phenyl]acetyl]amino]pyridine-2-carboxamide]",3.8,29,186,29
C#CC1(NC(=O)c2cc(NC(=O)Cc3cc(O)c(C(C)(C)C)cc3F)ccn2)CCCC1 [Example 1.2],> 4.5,3,149,45
"CC(C)(C#N)NC(=O)c1cc(NC(=O)Cc2cc(O)c(C3(C)CCC3)cc2F)ccn1 [Example 5, N-(1-Cyano-1-methyl-ethyl)-4-[[2-[2-fluoro-5-hydroxy-4-(1-methylcyclobutyl)phenyl]acetyl]amino]pyridine-2-carboxamide]",> 4,17,335,43
"N#CC1(NC(=O)c2cc(NC(=O)Cc3cc(O)c(C4(C(F)(F)F)CC4)cc3F)ccn2)CC1 [Example 9, N-(1-Cyanocyclopropyl)-4-[[2-[2-fluoro-5-hydroxy-4-[1-(trifluoromethyl)cyclopropyl]phenyl]acetyl]amino]pyridine-2-carboxamide]",3.5,72,378,88
